From article PMC7380166, “How to Study the Metabolism of New Psychoactive Substances for the Purpose of Toxicological Screenings—A Follow-Up Study Comparing Pooled Human Liver S9, HepaRG Cells, and Zebrafish Larvae” (Frontiers in Chemistry, 2020)

What was measured:
zebrafish larvae = experiment: Zebrafish larvae exposure, metabolite identification by LC-HRMS/MS; conditions: for Absolute peak area, Zebrafish larvae [25 μM]: 25 μM 4F-MDMB-BINACA in medium, larvae 4 dpf, larvae extract, one replicate of n = 3, n.d. = not detected
HepaRG cells = experiment: Incubations with HepaRG cells, metabolite identification by LC-HRMS/MS; assay type: in vitro ADME, human; conditions: for Absolute peak area, HepaRG [25 μM]: 25 μM parent NPS; for Absolute peak area, HepaRG [25 μM] / Absolute peak area, HepaRG [250 μM]: cell culture medium, one replicate of n = 3, n.d. = not detected; for Absolute peak area, HepaRG [250 μM]: 250 μM parent NPS
CYP2B6 = target: T1, CYP2B6 (Homo sapiens, UniProt P20813); experiment: Monooxygenases activity screening, CYP2B6; assay type: in vitro ADME; parameters: key: +, detected; –: −, not detected; conditions: 25 μM 4F-MDMB-BINACA, 50 pmol/ml enzyme, 30 min, 37°C, duplicate
T1 construct: purchased Corning; host or cells: baculovirus-transfected insect cell microsomes (Supersomes)
T1 sequence (P20813 1-491): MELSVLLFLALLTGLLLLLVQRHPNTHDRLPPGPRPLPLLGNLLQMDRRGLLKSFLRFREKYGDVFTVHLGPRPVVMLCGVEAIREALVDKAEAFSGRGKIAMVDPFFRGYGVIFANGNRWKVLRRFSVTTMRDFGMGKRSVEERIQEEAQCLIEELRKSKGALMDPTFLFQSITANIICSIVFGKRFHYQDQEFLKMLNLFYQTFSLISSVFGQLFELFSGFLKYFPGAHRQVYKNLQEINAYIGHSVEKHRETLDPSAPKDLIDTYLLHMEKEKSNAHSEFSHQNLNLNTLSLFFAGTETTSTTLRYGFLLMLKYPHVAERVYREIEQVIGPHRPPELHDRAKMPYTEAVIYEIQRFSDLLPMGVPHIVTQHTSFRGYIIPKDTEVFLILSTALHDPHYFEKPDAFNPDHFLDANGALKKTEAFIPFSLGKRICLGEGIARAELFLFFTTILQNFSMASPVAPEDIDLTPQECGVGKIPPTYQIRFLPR
Method: (§1) According to an established protocol (Wagmann et al., [2016]), the final volume per reaction tube was 50 μl with a final 4F-MDMB-BINACA concentration of 25 μM and enzyme concentrations of 50 pmol/ml for CYP1A2, CYP2A6, CYP2B6, CYP2C8, CYP2C9, CYP2C19, CYP2D6, CYP2E1, CYP3A4, and CYP3A5, respectively, or 0.25 mg protein/ml for FMO3. Furthermore, the reaction mixture contained 90 mM phosphate buffer (pH 7.4), superoxide dismutase (200 U/ml), isocitrate (5 mM), MgCl2 (5 mM), isocitrate dehydrogenase (0.5 U/ml), and NADP^+ (1.2 mM). The phosphate buffer was replaced with Tris buffer (90 mM) for incubations with CYP2A6 and CYP2C9 according to the manufacturer's recommendation. All incubations were performed at 37°C for 30 min and terminated by adding 50 μl of ice-cold acetonitrile. Afterwards, the mixtures were centrifuged at 18,407 × g for 5 min, 70 μl of the supernatants was transferred into autosampler vials, and 1 μl was injected onto the LC-HRMS/MS system. Positive control incubations were performed with pHLM (1 mg microsomal protein/ml), and negative controls without enzyme were prepared to identify non-metabolically formed compounds. All incubations were done in duplicate.

CYP2E1 = target: T2, CYP2E1 (Homo sapiens, UniProt P05181); experiment: Monooxygenases activity screening, CYP2E1; assay type: in vitro ADME; parameters: key: +, detected; –: −, not detected; conditions: 25 μM 4F-MDMB-BINACA, 50 pmol/ml enzyme, 30 min, 37°C, duplicate
T2 construct: purchased Corning; host or cells: baculovirus-transfected insect cell microsomes (Supersomes)
Method: as §1

[1] = Monooxygenases activity screening, pHLM positive control; assay type: in vitro ADME, human; parameters: key: +, detected; –: −, not detected; conditions: 25 μM 4F-MDMB-BINACA, 1 mg microsomal protein/ml, 30 min, 37°C, duplicate
Method: as §1

FMO3 = target: T3, FMO3 (Homo sapiens, UniProt P31513); experiment: Monooxygenases activity screening, FMO3; assay type: in vitro ADME; parameters: key: +, detected; –: −, not detected; conditions: 25 μM 4F-MDMB-BINACA, 0.25 mg protein/ml, 30 min, 37°C, duplicate
T3 construct: purchased Corning; host or cells: baculovirus-transfected insect cell microsomes (Supersomes)
T3 sequence (P31513 1-532): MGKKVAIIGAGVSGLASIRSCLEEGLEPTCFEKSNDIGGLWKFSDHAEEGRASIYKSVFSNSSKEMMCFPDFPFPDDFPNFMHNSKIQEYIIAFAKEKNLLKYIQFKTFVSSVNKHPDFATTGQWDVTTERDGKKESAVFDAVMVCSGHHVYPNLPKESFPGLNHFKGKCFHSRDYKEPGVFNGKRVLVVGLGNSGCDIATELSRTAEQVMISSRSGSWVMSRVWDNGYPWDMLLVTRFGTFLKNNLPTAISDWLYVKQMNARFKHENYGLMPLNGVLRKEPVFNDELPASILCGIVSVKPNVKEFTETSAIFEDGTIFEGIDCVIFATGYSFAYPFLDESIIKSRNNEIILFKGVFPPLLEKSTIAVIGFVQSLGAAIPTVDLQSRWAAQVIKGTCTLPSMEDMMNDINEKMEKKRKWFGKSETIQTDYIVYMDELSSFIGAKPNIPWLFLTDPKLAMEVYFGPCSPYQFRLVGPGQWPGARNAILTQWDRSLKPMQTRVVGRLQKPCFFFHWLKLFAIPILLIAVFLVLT
Method: as §1

CYP2C9 = target: T4, CYP2C9 (Homo sapiens, UniProt P11712); experiment: Monooxygenases activity screening, CYP2C9; assay type: in vitro ADME; parameters: key: +, detected; –: −, not detected; conditions: 25 μM 4F-MDMB-BINACA, 50 pmol/ml enzyme, 30 min, 37°C, duplicate
T4 construct: purchased Corning; host or cells: baculovirus-transfected insect cell microsomes (Supersomes)
Method: as §1

CYP3A5 = target: T5, CYP3A5 (Homo sapiens, UniProt P20815); experiment: Monooxygenases activity screening, CYP3A5; assay type: in vitro ADME; parameters: key: +, detected; –: −, not detected; conditions: 25 μM 4F-MDMB-BINACA, 50 pmol/ml enzyme, 30 min, 37°C, duplicate
T5 construct: purchased Corning; host or cells: baculovirus-transfected insect cell microsomes (Supersomes)
Method: as §1

CYP2A6 = target: T6, CYP2A6 (Homo sapiens, UniProt P11509); experiment: Monooxygenases activity screening, CYP2A6; assay type: in vitro ADME; parameters: key: +, detected; –: −, not detected; conditions: 25 μM 4F-MDMB-BINACA, 50 pmol/ml enzyme, 30 min, 37°C, duplicate
T6 construct: purchased Corning; host or cells: baculovirus-transfected insect cell microsomes (Supersomes)
T6 sequence (P11509 1-494): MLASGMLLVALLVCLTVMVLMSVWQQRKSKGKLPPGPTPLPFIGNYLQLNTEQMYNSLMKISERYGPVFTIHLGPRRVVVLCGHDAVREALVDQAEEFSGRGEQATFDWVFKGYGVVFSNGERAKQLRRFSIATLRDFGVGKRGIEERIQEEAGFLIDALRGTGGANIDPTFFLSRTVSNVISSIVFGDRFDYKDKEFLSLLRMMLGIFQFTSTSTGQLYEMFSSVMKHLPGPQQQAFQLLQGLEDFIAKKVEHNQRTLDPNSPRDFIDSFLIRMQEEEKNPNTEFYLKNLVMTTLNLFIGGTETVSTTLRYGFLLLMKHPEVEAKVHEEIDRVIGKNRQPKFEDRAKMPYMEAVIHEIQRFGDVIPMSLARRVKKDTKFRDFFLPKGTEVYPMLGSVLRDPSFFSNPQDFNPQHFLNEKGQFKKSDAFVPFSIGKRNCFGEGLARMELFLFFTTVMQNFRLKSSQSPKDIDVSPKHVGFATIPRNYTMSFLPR
Method: as §1

[2] = plasma, human data for ephylone and 4F-PHP from Wagmann et al., [2019b]
[3] = urine, human data for ephylone and 4F-PHP from Wagmann et al., [2019b]

T2 sequence (P05181 whole entry): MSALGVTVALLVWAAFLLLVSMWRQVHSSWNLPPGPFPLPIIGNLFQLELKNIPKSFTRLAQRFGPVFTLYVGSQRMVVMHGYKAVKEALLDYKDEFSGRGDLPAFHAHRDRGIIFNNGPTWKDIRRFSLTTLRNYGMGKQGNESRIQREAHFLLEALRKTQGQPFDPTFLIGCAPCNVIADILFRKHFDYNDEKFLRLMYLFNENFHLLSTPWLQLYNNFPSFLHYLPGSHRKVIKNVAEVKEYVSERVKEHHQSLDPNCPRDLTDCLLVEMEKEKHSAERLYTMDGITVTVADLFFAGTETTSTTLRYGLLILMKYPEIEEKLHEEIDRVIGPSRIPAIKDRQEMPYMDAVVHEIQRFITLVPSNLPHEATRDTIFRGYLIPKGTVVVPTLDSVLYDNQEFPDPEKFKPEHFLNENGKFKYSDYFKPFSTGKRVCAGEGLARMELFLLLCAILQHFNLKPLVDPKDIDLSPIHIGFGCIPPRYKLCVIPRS
T5 sequence (P20815 whole entry): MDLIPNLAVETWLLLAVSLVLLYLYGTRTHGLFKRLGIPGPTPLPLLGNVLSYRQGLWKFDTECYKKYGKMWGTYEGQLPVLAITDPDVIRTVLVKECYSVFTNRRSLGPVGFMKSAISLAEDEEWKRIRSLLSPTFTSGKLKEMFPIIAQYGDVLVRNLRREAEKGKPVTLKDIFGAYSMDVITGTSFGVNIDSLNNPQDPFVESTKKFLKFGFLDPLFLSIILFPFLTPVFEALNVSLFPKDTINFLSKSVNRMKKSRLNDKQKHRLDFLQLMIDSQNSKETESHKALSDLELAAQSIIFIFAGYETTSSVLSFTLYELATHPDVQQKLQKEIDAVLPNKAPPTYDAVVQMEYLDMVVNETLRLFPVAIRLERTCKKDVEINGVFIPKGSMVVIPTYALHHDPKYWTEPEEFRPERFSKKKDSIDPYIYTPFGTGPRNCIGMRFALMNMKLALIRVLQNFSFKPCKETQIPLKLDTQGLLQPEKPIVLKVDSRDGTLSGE
T4 sequence (P11712 whole entry): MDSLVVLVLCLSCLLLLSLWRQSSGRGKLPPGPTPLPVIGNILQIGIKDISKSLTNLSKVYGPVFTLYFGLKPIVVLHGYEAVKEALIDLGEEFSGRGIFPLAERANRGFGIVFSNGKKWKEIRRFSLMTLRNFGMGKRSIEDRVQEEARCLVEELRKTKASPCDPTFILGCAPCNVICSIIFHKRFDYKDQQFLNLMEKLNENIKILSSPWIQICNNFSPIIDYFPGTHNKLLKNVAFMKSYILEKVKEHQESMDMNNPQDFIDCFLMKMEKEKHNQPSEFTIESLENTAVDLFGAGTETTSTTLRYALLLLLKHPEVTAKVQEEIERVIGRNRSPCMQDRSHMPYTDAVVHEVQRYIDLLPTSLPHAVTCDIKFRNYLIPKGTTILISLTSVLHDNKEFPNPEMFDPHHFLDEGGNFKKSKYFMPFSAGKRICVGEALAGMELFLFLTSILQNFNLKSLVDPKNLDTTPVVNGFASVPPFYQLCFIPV

Row | SMILES | Absolute peak area, Zebrafish larvae [25 μM] (zebrafish larvae; 24 h) | Absolute peak area, HepaRG [25 μM] (HepaRG cells; 24 h) | Absolute peak area, HepaRG [250 μM] (HepaRG cells; 24 h) | Detection of metabolite in incubation with CYP2B6 (CYP2B6) | Detection of metabolite in incubation with CYP2E1 (CYP2E1) | Detection of metabolite in incubation with pHLM [1] | Detection of metabolite in incubation with FMO3 (FMO3) | Detection of metabolite in incubation with CYP2C9 (CYP2C9) | Detection of metabolite in incubation with CYP3A5 (CYP3A5) | Detection of metabolite in incubation with CYP2A6 (CYP2A6) | further results
1 | COC(=O)C(NC(=O)c1nn(CCCCF)c2ccccc12)C(C)(C)C (stereo not shown) [4F-MDMB-BINACA, methyl 2-[1-(4-fluorobutyl)-1H-indazole-3-carbonyl]amino-3,3-dimethylbutanoate] | 2.89E+09 | 1.28E+08 | 5.18E+08 |  |  |  |  |  |  |  | Number of phase I metabolites detected, Zebrafish larvae (zebrafish larvae; 25 μM in medium, 24 h): 14; Number of phase II metabolites detected, Zebrafish larvae (zebrafish larvae; 25 μM in medium, 24 h): 4; Relative number of matches with the four most abundant signals in human plasma, Zebrafish larvae (zebrafish larvae; plasma, larvae exposed to 25 μM): 100%; Relative number of matches with the four most abundant signals in human urine, Zebrafish larvae (zebrafish larvae; urine, larvae exposed to 25 μM): 75%; Number of phase I metabolites detected, HepaRG [25 μM] (HepaRG cells; 25 μM, 24 h): 7; Number of phase II metabolites detected, HepaRG [25 μM] (HepaRG cells; 25 μM, 24 h): 2; Number of phase I metabolites detected, HepaRG [250 μM] (HepaRG cells; 250 μM, 24 h): 12; Number of phase II metabolites detected, HepaRG [250 μM] (HepaRG cells; 250 μM, 24 h): 3; Relative number of matches with the four most abundant signals in human plasma, HepaRG [25 μM] (HepaRG cells; [2]): 50%; Relative number of matches with the four most abundant signals in human plasma, HepaRG [250 μM] (HepaRG cells; [2]): 75%; Relative number of matches with the four most abundant signals in human urine, HepaRG [25 μM] (HepaRG cells; [3]): 50%; Relative number of matches with the four most abundant signals in human urine, HepaRG [250 μM] (HepaRG cells; [3]): 100%
2 | O=C(O)c1nn(CCCCF)c2ccccc12 [MB1] |  | 3.34E+04 | 3.82E+06 | – | – | + | – | – | – | – | 
3 | COC(=O)[C@@H](NC(=O)c1n[nH]c2ccccc12)C(C)(C)C [MB4] | 7.45E+06 |  | 9.55E+06 | – | – | + | – | – | + | – | 
4 | CC(C)(C)C(NC(=O)c1nn(CCCCF)c2ccccc12)C(=O)O (stereo not shown) [MB8] | 1.73E+07 | 5.16E+07 | 1.63E+09 | – | – | + | – | – | – | – | 
5 | COC(=O)[C@@H](NC(=O)c1nn(CCCCO)c2ccccc12)C(C)(C)C [MB11] | 2.92E+06 | 9.30E+04 | 6.93E+06 | – | – | + | – | – | + | – | 
6 | COC(=O)[C@@H](NC(=O)c1nn(CCCCF)c2ccccc12)C(C)(C)CO [MB16] | 5.98E+06 |  |  | – | – | + | – | – | + | – | 
